For 36 compounds, inhibition results are on record in PubChem BioAssay AID493105 (The Scripps Research Institute Molecular Screening Center, 2011).

Common to all, as to assay: LYPLA1 and LYPLA2 inhibitors, biochemical, gel-based ABPP, fluorescence, recombinant and endogenous enzyme (AID 493105)
In test [1] the test system is rhLYPLA2. As to conditions: fluorescent probe labeling, membrane fraction, at 20 µM, stronger effect = higher value.
For test [2], the system named is emLYPLA1. As to conditions: fluorescent probe labeling, membrane fraction, at 20 µM, stronger effect = higher value.
Test [3] deals with rhLYPLA1. As to conditions: fluorescent probe labeling, soluble fraction, at 20 µM, stronger effect = higher value.
Test [4] deals with emLYPLA2. The note with it: fluorescent probe labeling, membrane fraction, at 20 µM, stronger effect = higher value.

Active and inactive are the calls of the source. The rule behind the calls is not given here.

As a reminder, the inhibition is the percentage by which the read-out fell short of the control. For the compound `COc1ccc(C(=O)NC(=S)Nc2ccc(N3CCOCC3)cc2)cc1Cl`, the inhibition in test [1] was 1% (inactive); in test [2], 0% (inactive); in test [3] it was 0% (inactive); in test [4] it was 8% (inactive).

In the case of `O=C(NCCNC(=O)c1cc(OCC(F)(F)F)ccc1OCC(F)(F)F)Nc1cccc(C(F)(F)F)c1`, the inhibition was 0% (inactive) in test [1], 12% (inactive) in test [2], 57% in test [3] and 7% (inactive) in test [4].

For the compound `CCN(CC)S(=O)(=O)c1cccc(-c2nnc(SCCOc3ccccc3)o2)c1`, the inhibition is 19% (inactive) in test [1], 0% (inactive) in test [2], 8% (inactive) in test [3] and 17% (inactive) in test [4].

With `N#Cc1c(NC(=O)CSc2nc(N)cc(=O)[nH]2)sc2c1CCCC2`, the inhibition in test [1] is 3% (inactive); in test [2], 0% (inactive); in test [3], 26% (inactive); in test [4], 0% (inactive).

As to `O=C(COc1ccc(Cl)cc1)N1CCN(c2ccc([N+](=O)[O-])c(N3CCOCC3)c2)CC1`, the inhibition in test [1] is 3% (inactive); in test [2] it was 0% (inactive); in test [3], 47%; in test [4] it was 0% (inactive).

For the compound `O=C(O)c1ccc2c(c1)C(=O)N(CCCCCCCN1C(=O)c3ccc(C(=O)O)cc3C1=O)C2=O`, the inhibition in test [1] was 0% (inactive); in test [2], 23% (inactive); in test [3], 65%; in test [4], 3% (inactive).

In the case of `O=[N+]([O-])c1ccc(N2CCC(=NOCc3ccc(Cl)cc3)CC2)cc1`, the inhibition is 0% (inactive) in test [1], 12% (inactive) in test [2], 22% (inactive) in test [3] and 13% (inactive) in test [4].

In the case of `O=C(CCCc1ccccc1)N1CCN(c2ccc([N+](=O)[O-])cc2)CC1`, the inhibition in test [1] is 0% (inactive); in test [2] it was 0% (inactive); in test [3], 0% (inactive); in test [4], 3% (inactive).

Turning to `COc1ccc(/C=C2/Sc3ccc(C(=O)NCCCN4CCOCC4)cc3NC2=O)cc1OC`, the inhibition is 1% (inactive) in test [1], 5% (inactive) in test [2], 0% (inactive) in test [3] and 0% (inactive) in test [4].

On to `Clc1ccc(C(c2ccc(Cl)cc2)n2cc[n+](CC(OCc3ccc(Cl)cc3Cl)c3ccc(Cl)cc3Cl)c2)cc1` (centres undefined), for which the inhibition in test [1], in test [2], in test [3] and in test [4] was 0% (inactive) throughout.

As for `Clc1cccc(N2CCN(CCNc3nc4ccccc4n4cnnc34)CC2)c1`, the inhibition in test [1] is 0% (inactive); in test [2], 1% (inactive); in test [3] it was 0% (inactive); in test [4], 0% (inactive).

`COc1ccc(-n2nc(C(=O)NCC(=O)N3CCN(Cc4ccccc4)CC3)c3ccccc3c2=O)c(OC)c1`: the inhibition is 30% in test [1], 0% (inactive) in test [2], 31% in test [3] and 46% in test [4].

In the case of `O=C1N=C(N2CCN(Cc3ccccc3)CC2)S/C1=C/c1cccs1`, the inhibition in test [1] was 2% (inactive); in test [2], 4% (inactive); in test [3], 0% (inactive); in test [4], 0% (inactive).

Take `O=C(CCCCn1c(=O)[nH]c2ccccc2c1=O)N1CCN(c2cccc(C(F)(F)F)c2)CC1`: the inhibition in test [1], in test [2], in test [3] and in test [4] was 0% (inactive) throughout.

As to `Cc1nn(-c2ccccc2)c(N2CCCC2)c1/C=N/Nc1ccc(S(N)(=O)=O)cc1[N+](=O)[O-]`, the inhibition is 0% (inactive) in test [1], 0% (inactive) in test [2], 7% (inactive) in test [3] and 1% (inactive) in test [4].

For `O=C(Nc1ccc2oc(-c3cccnc3)nc2c1)c1ccc2c(c1)OCCO2`, the inhibition in test [1], in test [2], in test [3] and in test [4] was 0% (inactive) throughout.

In the case of `COc1ccc(N2CCN(C(=O)CNC(=O)c3cn(-c4ccccc4OC)c(=O)c4ccccc34)CC2)cc1`, the inhibition is 26% (inactive) in test [1], 15% (inactive) in test [2], 0% (inactive) in test [3] and 34% in test [4].

On to `Cc1[nH]c2ccccc2c1C(=O)CN1CCN(C/C=C/c2ccccc2)CC1`, for which the inhibition in test [1], in test [2], in test [3] and in test [4] was 0% (inactive) throughout.

`O=C(CN1CCN(C(=O)c2ccccc2)CC1)Nc1cc(S(=O)(=O)N2CCCC2)ccc1Cl`: the inhibition is 3% (inactive) in test [1], 21% (inactive) in test [2], 55% in test [3] and 14% (inactive) in test [4].

On to `COc1ccc(OCC(O)CN2CCC(CN3C(=O)c4cccc5cccc(c45)C3=O)CC2)cc1` (centres undefined), for which the inhibition in test [1] was 9% (inactive); in test [2], 0% (inactive); in test [3] it was 0% (inactive); in test [4], 16% (inactive).

Consider `COc1ccc(OC)c(NC(=O)C2CCC(CNc3c(N4CCC(C)CC4)c(=O)c3=O)CC2)c1` (centres undefined), for which the inhibition in test [1] was 7% (inactive); in test [2], 2% (inactive); in test [3], 27% (inactive); in test [4], 3% (inactive).

For `COc1ccc(-n2c(C)c([N+](=O)[O-])c3ccc(O)c(CN4CCCCC4)c32)cc1`, the inhibition was 0% (inactive) in test [1], 0% (inactive) in test [2], 21% (inactive) in test [3] and 0% (inactive) in test [4].

For `O=C(c1ccc2n[nH]nc2c1)N1CCN(c2ccc(C(F)(F)F)cn2)CC1`, the inhibition in test [1] is 32%; in test [2], 90%; in test [3], 70%; in test [4] it was 57%.

Turning to `COc1ccc(C(=O)NC(=S)Nc2ccc(N3CCN(C(C)=O)CC3)cc2)cc1[N+](=O)[O-]`, the inhibition in test [1] was 15% (inactive); in test [2] it was 10% (inactive); in test [3], 44%; in test [4], 31%.

Turning to `CC1CCc2c(sc(NC(=O)CN3CCN(C(=O)c4ccco4)CC3)c2C#N)C1` (centres undefined), the inhibition in test [1] is 0% (inactive); in test [2], 3% (inactive); in test [3] it was 16% (inactive); in test [4], 0% (inactive).

Consider `COc1ccc(-n2nc(C(=O)NCC(=O)N3CCN(Cc4ccccc4)CC3)c3ccccc3c2=O)cc1OC`, for which the inhibition in test [1] is 7% (inactive); in test [2], 23% (inactive); in test [3], 16% (inactive); in test [4] it was 15% (inactive).

For the compound `O=[N+]([O-])c1cccc(/C=N/N2CCN(Cc3ccc(Cl)cc3)CC2)c1`, the inhibition in test [1], in test [2], in test [3] and in test [4] was 0% (inactive) in each case.

In the case of `Cc1ccc(OCC(=O)N2CCN(C(=O)CCC3CCCC3)CC2)cc1`, the inhibition in test [1] was 3% (inactive); in test [2], 14% (inactive); in test [3], 43%; in test [4], 14% (inactive).

In the case of `CC(=O)c1ccc(N2CCN(C(=O)c3ccc(C(=O)c4ccccc4)cc3)CC2)cc1`, the inhibition is 2% (inactive) in test [1], 13% (inactive) in test [2], 0% (inactive) in test [3] and 0% (inactive) in test [4].

As to `O=C(N1CCOCC1)n1nnc2ccccc21`, the inhibition in test [1] is 76%; in test [2], 99%; in test [3] it was 98%; in test [4], 88%.

For `C/C(=C\c1ccccc1)CN1CCN(c2cccc(Cl)c2)CC1`, the inhibition in test [1], in test [2], in test [3] and in test [4] was 0% (inactive) in each case.

Consider `COc1ccc(N2CCN(C(=O)C3CCC(Cn4c(=S)[nH]c5ccccc5c4=O)CC3)CC2)cc1` (centres undefined), for which the inhibition is 45% in test [1], 2% (inactive) in test [2], 0% (inactive) in test [3] and 67% in test [4].

Regarding `N#Cc1c(NC(=O)CN2CCN(C(=O)c3ccco3)CC2)sc2c1CCCCC2`, the inhibition in test [1] was 0% (inactive); in test [2], 0% (inactive); in test [3], 20% (inactive); in test [4] it was 6% (inactive).

As for `CC(=O)N1CCC2(CC1)C/C(=N\NC(=S)Nc1ccc(C)cc1)c1cc(O)ccc1O2`, the inhibition in test [1] was 0% (inactive); in test [2], 0% (inactive); in test [3], 3% (inactive); in test [4], 1% (inactive).

With `COc1ccc2c(c1)C(=O)[C@H](O)[C@@H](c1ccc(OC)c(Br)c1)O2`, the inhibition is 51% in test [1], 0% (inactive) in test [2], 0% (inactive) in test [3] and 73% in test [4].

On to `Cc1c(Br)c([N+](=O)[O-])nn1CC(=O)Nc1ccc(Cc2ccncc2)cc1`, for which the inhibition in test [1] is 0% (inactive); in test [2] it was 8% (inactive); in test [3] it was 0% (inactive); in test [4], 8% (inactive).
